In PMC7920804 (Bioorganic & Medicinal Chemistry Letters, 2021):

Tested on: not listed separately
Assay: in vivo
Conditions: rat, po, 10 mg/kg

| Compound | Cmax [ng/mL] |
| --- | --- |
| O=c1[nH]c(Nc2cc(Cl)cc(Cl)c2)nc2cccc(O)c12 [Compound 11e, 2-((3,5-dichlorophenyl)amino)-5-hydroxyquinazolin-4(3H)-one] | 60 |

Target: CYP3A4 (Homo sapiens, UniProt P08684)
Assay: CYP inhibition assay, 3A4
Type: in vitro ADME
Conditions: not given

Sequence of CYP3A4 (P08684 whole entry): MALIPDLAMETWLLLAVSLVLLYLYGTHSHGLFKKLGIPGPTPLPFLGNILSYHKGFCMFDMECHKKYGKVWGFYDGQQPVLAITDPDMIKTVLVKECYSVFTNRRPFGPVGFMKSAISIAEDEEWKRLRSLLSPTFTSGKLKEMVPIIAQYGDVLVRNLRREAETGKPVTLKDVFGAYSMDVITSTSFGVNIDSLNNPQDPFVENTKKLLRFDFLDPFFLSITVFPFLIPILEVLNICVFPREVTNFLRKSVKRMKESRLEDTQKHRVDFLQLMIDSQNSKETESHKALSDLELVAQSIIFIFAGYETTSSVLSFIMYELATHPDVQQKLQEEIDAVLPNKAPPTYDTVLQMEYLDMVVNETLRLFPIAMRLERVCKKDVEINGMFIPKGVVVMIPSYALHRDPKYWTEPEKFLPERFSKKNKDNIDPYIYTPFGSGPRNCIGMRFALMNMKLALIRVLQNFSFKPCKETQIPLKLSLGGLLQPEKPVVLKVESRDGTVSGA

| Compound | inhibition at 10 µM [%] |
| --- | --- |
| O=c1[nH]c(Nc2cc(Cl)cc(Cl)c2)nc2cccc(O)c12 [Compound 11e, 2-((3,5-dichlorophenyl)amino)-5-hydroxyquinazolin-4(3H)-one] | > 65 |

Tested on: SARS-CoV-2
Assay: not given
Conditions: not given

| Compound | SARS-CoV-2 IC50 |
| --- | --- |
| O=c1[nH]c(Nc2cc(Cl)cc(Cl)c2)nc2cc(N3CCOCC3)ccc12 [Compound 11k] | no anti-SARS-CoV-2 activity |
| Nc1ccc2c(=O)[nH]c(Nc3cc(F)cc(F)c3)nc2c1 [Compound 10c] | no inhibitory effects |
| O=c1[nH]c(Nc2cc(F)cc(F)c2)nc2cc(O)ccc12 [Compound 10g] | no inhibitory effects |
| O=c1[nH]c(Nc2ccccc2F)nc2cc(Cl)ccc12 [Compound 9a] | no inhibitory effect |
| Cc1cc(C)c2nc(Nc3cc(Cl)cc(Cl)c3)[nH]c(=O)c2c1 [Compound 11h, 2-((3,5-Dichlorophenyl)amino)-6,8-dimethylquinazolin-4(3H)-one] | no inhibitory effects |
| O=c1[nH]c(Nc2cc(Cl)cc(Cl)c2)nc2cc(O)ccc12 [Compound 11g] | no inhibitory effects |
| Nc1ccc2c(=O)[nH]c(Nc3cc(Cl)cc(Cl)c3)nc2c1 [Compound 11c] | no inhibitory effects |
| O=c1[nH]c(Nc2ccc(F)cc2)nc2cc(Cl)ccc12 [Compound 9c] | no inhibitory effect |
| O=c1[nH]c(Nc2ccc(F)cc2F)nc2cc(Cl)ccc12 [Compound 9d] | no activity |
| COc1cccc2nc(Nc3cc(Cl)cc(Cl)c3)[nH]c(=O)c12 [Compound 11d] | no inhibitory effects |
| Cc1cc(C)c2nc(Nc3cc(F)cc(F)c3)[nH]c(=O)c2c1 [Compound 10h] | no inhibitory effects |
| COc1cccc2nc(Nc3cc(F)cc(F)c3)[nH]c(=O)c12 [Compound 10d] | no inhibitory effects |

Tested on: SARS-CoV-2
Assay: microbe, parasite or virus in culture
Conditions: Severe acute respiratory syndrome coronavirus 2, Vero, read-out: SARS-CoV-2 IC50

| Compound | IC50 [µM] |
| --- | --- |
| COc1cccc(Nc2nc3cc(Cl)ccc3c(=O)[nH]2)c1 [Compound 9h] | > 11 |
| O=c1[nH]c(NCC2CCCCC2)nc2cc(Cl)ccc12 [Compound 9n] | > 14 |
| CC(C)Nc1nc2cc(Cl)ccc2c(=O)[nH]1 [Compound 9o] | > 14 |
| O=c1[nH]c(Nc2cc(Cl)cc(Cl)c2)nc2cc(Cl)ccc12 [Compound 9g, 7-chloro-2-((3,5-dichlorophenyl)amino)quinazolin-4(3H)-one] | < 0.25 |
| CCCCNc1nc2cc(Cl)ccc2c(=O)[nH]1 [Compound 9p] | > 14 |
| O=c1[nH]c(Nc2cc(Cl)cc(Cl)c2)nc2cccc(O)c12 [Compound 11e, 2-((3,5-dichlorophenyl)amino)-5-hydroxyquinazolin-4(3H)-one] | < 0.25 |
| O=c1[nH]c(N2CCCCC2)nc2cc(Cl)ccc12 [Compound 9q] | > 14 |

Target: T1, CYP1A2 (Homo sapiens, UniProt P05177)
T1 sequence (P05177 1-516): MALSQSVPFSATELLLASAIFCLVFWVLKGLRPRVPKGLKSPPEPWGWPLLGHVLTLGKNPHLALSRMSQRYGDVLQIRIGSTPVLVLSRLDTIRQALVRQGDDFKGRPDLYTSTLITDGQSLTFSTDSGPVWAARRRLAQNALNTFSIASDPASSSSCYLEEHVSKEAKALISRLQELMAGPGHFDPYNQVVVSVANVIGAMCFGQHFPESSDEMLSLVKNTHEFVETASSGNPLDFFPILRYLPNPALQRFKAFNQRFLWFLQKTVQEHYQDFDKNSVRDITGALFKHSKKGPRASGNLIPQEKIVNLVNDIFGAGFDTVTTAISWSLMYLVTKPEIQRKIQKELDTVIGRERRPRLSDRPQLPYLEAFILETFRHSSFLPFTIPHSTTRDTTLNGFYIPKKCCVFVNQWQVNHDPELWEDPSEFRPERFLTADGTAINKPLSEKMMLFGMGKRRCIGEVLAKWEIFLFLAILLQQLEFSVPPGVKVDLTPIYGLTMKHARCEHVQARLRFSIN
Assay: CYP inhibition assay, 1A2
Type: in vitro ADME
Conditions: not given

| Compound | inhibition at 10 µM [%] |
| --- | --- |
| O=c1[nH]c(Nc2cc(Cl)cc(Cl)c2)nc2cccc(O)c12 [Compound 11e, 2-((3,5-dichlorophenyl)amino)-5-hydroxyquinazolin-4(3H)-one] | > 65 |
